Experimental findings from patent publication US11951178B2, “Methods for treating subjects suffering from acute myeloid leukemia with FLT3 ligand-targeted miR-150 nanoparticles” (University of Cincinnati, priority 2016, dated 2024) are described below.

Data set [1] is described as follows: Blood cell counts of normal mice after nanoparticle/drug administration (effects on normal hematopoiesis).
Description: FIG. 12 provides an analysis of the potential influence of the nanoparticles on hematopoietic system in normal mice, C57BL/6 wild type mice were treated with 0.5 mg/kg PBS (Control/Ctrl), G7-NH2, G7-Flt3L, G7-NH2-miR-150 or G7-Flt3L-miR-150, i.v., every other day, for ten times. Mice were sacrificed 12 weeks after the last administration, subsequent Wright-Giemsa stained PB and BM, and H&E stained spleen and liver of the animals are shown.
In data set [2] the test system is primary MLL-AF9 AML cells. The data set is described as follows: MLL-AF9 AML secondary BMT recipient mouse model. The format is in vivo. The settings on record: MLL-AF9 AML mice; nanoparticles 0.5 mg/kg i.v., JQ1 50 mg/kg i.p., every other day; PBS control 54 days.
Description: The same MLL-AF9 AML mouse model was employed. […] All the P values were detected by log-rank test.
After the onset of secondary AML, the recipient mice were treated with PBS control, 0.5 mg/kg G7-NH2-miR-150, or G7-Flt3L-miR-150, i.v., every other day, until the PBS-treated control group all died of leukemia.
For the JQ1 and nanoparticle combination treatment experiment, after the onset of AML, the recipient mice were treated with PBS control, or 50 mg/kg JQ1, i.p., alone, or together with 0.5 mg/kg G7-NH2-miR-150, or G7-Flt3L-miR-150, i.v., every other day, until the PBS-treated control group all died of leukemia.
The in vivo therapeutic effects of the miR-150 nanoparticles were also investigated in a MLL-rearranged leukemic mouse model.
Where [3] appears, read: normal C57BL/6 mice, 50 mg/kg JQ1 and/or 0.5 mg/kg nanoparticles, i.v., every day for 15 days, 4 weeks after the last administration.

`Cc1sc2c(c1C)C(c1ccc(Cl)cc1)=N[C@@H](CC(=O)OC(C)(C)C)c1nnc(C)n1-2` [JQ1]: in data set [1] (setting [3]), the BA stood at 0.01 ± 0.0 K/μl, the EO was found to be 0.04 ± 0.04 K/μl, the LY came to 5.57 ± 0.83 K/μl and the MO is reported as 0.36 ± 0.32 K/μl. In data set [1] (setting [3]), this compound had an NE of 1.2 ± 0.62 K/μl, a PLT of 688 ± 110.3 K/μl, an RBC of 8.12 ± 1.13 M/μl and a WBC of 7.18 ± 0.76 K/μl. Besides, the “noticeable (side) effects on normal hematopoiesis” value in data set [1] (normal mice in vivo) is given as “did not cause any noticeable side effects”. For the same compound, the median survival in data set [2] came to 69.5 days.
